Results taken from US8632846B2, “Apparatus and methods for loading a drug eluting medical device” (Medtronic Vascular, Inc., priority 2010, dated 2014).

Assay: solubility of sirolimus in solvents / dispersion media
Format: physicochemical
Description: Solution 524 is a homogeneous mixture in which therapeutic substance 112 dissolves within a solvent or a solvent mixture. In one embodiment, solution 524 includes a high-capacity solvent 528 which is an organic solvent that has a high capacity to dissolve therapeutic substance 112. High capacity as utilized herein is defined as an ability to dissolve therapeutic substance 112 at concentrations greater than 500 mg of substance per milliliter of solvent. Examples of high capacity drug dissolving solvents for sirolimus and similar substances include but are not limited to tetrahydrofuran (THF), di-chloromethane (DCM), chloroform, and di-methyl-sulfoxide (DMSO). In addition to the high-capacity solvent, solution 524 may include an excipient 526 in order to assist in drug elution. In one embodiment, excipient 526 may be a surfactant such as but not limited to sorbitan fatty acid esters such as sorbitan monooleate and sorbitan monolaurate, polysorbates such as polysorbate 20, polysorbate 60, and polysorbate 80, cyclodextrins such as 2-hydroxypropyl-beta-cyclodextrin and 2,6-di-O-methyl-beta-cyclodextrin, sodium dodecyl sulfate, octyl glucoside, and low molecular weight poly(ethylene glycol)s. In another embodiment, excipient 526 may be a hydrophilic agent such as but not limited to salts such as sodium chloride and other materials such as urea, citric acid, and ascorbic acid. […]

solubility in hexane (hexane): insoluble
solubility in water (water): insoluble
SMILES: CO[C@H]1C[C@@H]2CC[C@@H](C)[C@@](O)(O2)C(=O)C(=O)N2CCCC[C@H]2C(=O)O[C@H]([C@H](C)C[C@@H]2CC[C@@H](O)[C@H](OC)C2)CC(=O)[C@H](C)/C=C(\C)[C@@H](O)[C@@H](OC)C(=O)[C@H](C)C[C@H](C)/C=C/C=C/C=C/1C [sirolimus]
